Measurements published in ChEMBL document CHEMBL1122038, “Peptide sweeteners. 5. Side-chain homologues relating zwitterionic and trifluoroacetylated amino acid anilide and dipeptide sweeteners” (J Med Chem, 1982).
Counter-ions that a name gives are not always drawn. Peptide text beside a SMILES is read from it. * marks the point of attachment. Tfa = O=C(C(F)(F)F)*

Assay: Compound was evaluated for the potency of sweet taste when sweetness of sucrose is taken as 1 on a weight basis; Not sweet
Type: functional

| SMILES | Taste |
| --- | --- |
| N#Cc1ccc(NC(=O)C(CC(=O)O)NC(=O)C(F)(F)F)cc1 (centres undefined) | 0 |
| N#Cc1ccc(NC(=O)C(NC(=O)C(F)(F)F)C(=O)O)cc1 (centres undefined) | 0 |
| COC(=O)C(Cc1ccccc1)NC(=O)C(NC(=O)C(F)(F)F)C(=O)O (centres undefined) | 0 |
| N#Cc1ccc(NC(=O)C(N)C(=O)O)cc1 (centres undefined) | 0 |
| N#Cc1ccc(NC(=O)CCC(NC(=O)C(F)(F)F)C(=O)O)cc1 (stereo in doubt; 11) | 0 |
| N#Cc1ccc(NC(=O)CCC(NC(=O)C(F)(F)F)C(=O)O)cc1 (stereo in doubt; 9) | 0 |
| COC(=O)C(Cc1ccccc1)NC(=O)C(CCC(=O)O)NC(=O)C(F)(F)F (centres undefined) | 0 |
| N#Cc1ccc(NC(=O)CC(NC(=O)C(F)(F)F)C(=O)O)cc1 (centres undefined) | 0 |
| COC(=O)[C@H](Cc1ccccc1)NC(=O)[C@@H](N)CCC(=O)O | 0 |
| N#Cc1ccc(NC(=O)C[C@@H](NC(=O)C(F)(F)F)C(=O)O)cc1 | 0 |
| N#Cc1ccc(NC(=O)C(CCC(=O)O)NC(=O)C(F)(F)F)cc1 (centres undefined) | 0 |
| N#Cc1ccc(NC(=O)C(CCCC(=O)O)NC(=O)C(F)(F)F)cc1 (centres undefined) | 0 |

Assay: Compound was evaluated for the potency of sweet taste when sweetness of sucrose is taken as 1 on a weight basis; 150-200

| SMILES | Taste |
| --- | --- |
| COC(=O)[C@H](Cc1ccccc1)NC(=O)[C@@H](N)CC(=O)O | 150 |
| COC(=O)C(Cc1ccccc1)NC(=O)C(CC(=O)O)NC(=O)C(F)(F)F (stereo not drawn) (Tfa-Asp-Phe-OMe; configuration not given here) | 150 |
| COC(=O)[C@H](Cc1ccccc1)NC(=O)C(N)C(=O)O (some centres undefined) | 150 |

Assay: Compound was evaluated for the potency of sweet taste when sweetness of sucrose is taken as 1 on a weight basis; 15-30

| SMILES | Taste |
| --- | --- |
| N#Cc1ccc(NC(=O)C(N)CCC(=O)O)cc1 (centres undefined) | 15 |
| N#Cc1ccc(NC(=O)C(N)CC(=O)O)cc1 (centres undefined) | 15 |

Assay: Compound was evaluated for the potency of sweet taste when sweetness of sucrose is taken as 1 on a weight basis; 2500-3000

| SMILES | Taste |
| --- | --- |
| N#Cc1ccc(NC(=O)[C@H](CC(=O)O)NC(=O)C(F)(F)F)cc1 | 2500 |
| N#Cc1ccc(NC(=O)C(CCC(=O)O)NC(=O)C(F)(F)F)cc1 (centres undefined) | 2500 |
